Measured values taken from US11179471B2, “Peptide for cytosolic delivery” (priority 2017, dated 2021).
“Also recorded” adds a separate entry of the source. Like-named read-outs stand apart in the source and are kept apart here. Non-standard residues stand in square brackets, D forms with d. No end group written: not given here. hArg = N=C(N)NCCCC[C@H](N)C(=O)O; Aad = N[C@@H](CCCC(=O)O)C(=O)O

What was measured:
HeLa cells [1] = assay: Intracellular release of Alexa 488-labeled human immunoglobulin (IgG, circa 160 kDa); assay type: cell-based; details: for cells in which intracellular release of human immunoglobulin was observed: α-MEM(−) 1 hour
Method: The cells and human immunoglobulin fluorescently labeled with Alexa 488 (IgG, circa 160 kDa) (500 μg/mL) were incubated in the presence of HAad, HA/E2, or L17E (40 μM each) in α-MEM(−) medium for 1 hour in the same manner as in Example 6.
The cells and human immunoglobulin fluorescently labeled with Alexa 488 (IgG, circa 160 kDa) (50 μg/mL: 1/10 the volume of Example 8) were incubated in the presence of HAad or L17E (40 μM each) in α-MEM(−) medium for 1 hour.
In the presence of HAad or L17E (20 μM each: ½ the amount used in Examples 8 and 9), the cells and human immunoglobulin fluorescently labeled with Alexa 488 (IgG, circa 160 kDa) (500 μg/mL: the same amount as in Example 8) were incubated in α-MEM(−) medium for 1 hour. […] (In FIG. 9, the intracellular release achieved by treatment with a low concentration of HAad was 2.5 times the release achieved by L17E. With respect to the peptide concentration required to detect the signal of intracellularly released human immunoglobulin in 35% of the cells, the concentration of L17E is 40 μM, and the concentration of HAad is 20 μM, which is half the concentration of L17E.)

cells = assay: Cell viability 24 hours after peptide treatment in the presence of serum (WST-8); assay type: cell-based; details: 10-40 μM; α-MEM(+) 24 hours
Method: (§1) After the cells were incubated in the presence of HAad, HA/E2, or L17E (each 10 μM, 20 μM, and 40 μM) in α-MEM(+) medium for 24 hours, the cell viability (%) was evaluated by WST-8 assay (FIG. 14). The cell viability (%) after 24 hours with the use of any peptide at any concentration was almost 100%.

[2] = as above; assay type: cell-based; details: cells (cell line not given); peptide 10 μM, 20 μM and 40 μM; α-MEM(+) 24 hours; WST-8
Method: as §1

HeLa cells [3] = assay: Release of Alexa 488-dextran (10 kDa) into the cytoplasm, confocal microscopy; assay type: cell-based
Method: Cells; HeLa, peptides; 40 μM, Alexa 488-dextran (10 kDa); 200 μg/mL, treatment; 1 hr in α-MEM(−).
Cells; HeLa, peptides; 40 μM, Alexa 488-dextran (10 kDa); 200 μg/mL, treatment; 1 hr in α-MEM(−). The results are presented as means ±SE (n=3). **; p<0.01 (Student's t-test).
Cells; HeLa, peptides; 40 μM, Alexa 488-dextran (10 kDa); 200 μg/mL, treatment; 1 hr in α-MEM(−). Results are presented as means±SE (n=3). *; p<0.05, **; p<0.01, ***; p<0.001 (one-way ANOVA followed by the Tukey-Kramer honestly significant difference test (post-hoc test)).
(§2) In the presence of each peptide obtained in Example 1 (L17E, L17E/Q21E, HA/E1, HA/E2) (40 μM) or in the absence of the peptides (a control, no peptide), HeLa cells and Alexa 488-dextran (Molecular Probes, 10 kDa) (200 μg/mL) were treated in α-MEM(−) for 1 hour. The cells were washed, and observed with a confocal microscope.
as §2, with “L17Aad)” for “L17E/Q21E, HA/E1, HA/E2)”
as §2, with “(HAad, HA/E2, L17Aad, L17E)” for “(L17E, L17E/Q21E, HA/E1, HA/E2)”
When HeLa cells were incubated with Alexa 488-dextran (10 kDa) (200 μg/mL) as a macromolecular drug model in the presence of HAad (40 μM) in α-MEM(−) for 1 hour, Alexa 488-dextran release into about 75% of cells (cytosol) was observed. In contrast, when the incubation was performed in the presence of L17E, Alexa 488-dextran release into about 50% of the cells was observed.
HeLa cells, Alexa 488-dextran (Molecular Probes, 10 kDa) (200 μg/mL), and HAad; or HeLa cells, Alexa 488-dextran, (Molecular Probes, 10 kDa) (200 μg/mL), and HAad-homoR (20 μM) were treated in α-MEM(−) for 1 hour. The cells were washed, and observed with a confocal microscope.

[4] = tested on: mitochondrial membrane of HeLa cells
Source text: Mitochondrial membranes are considered to be rich in acidic lipid, as compared with cell membranes. Accordingly, the effects of the above peptides on a mitochondrial membrane were examined by JC-1 assay. A JC-1 reagent emits red (J-aggregate) fluorescence when the mitochondrial membrane is kept normal and the membrane potential is maintained; and the JC-1 reagent emits green (J-monomer) fluorescence when the mitochondrial membrane is damaged and the membrane potential is not kept normal. After HeLa cells were incubated with HAad, HA/E2, or L17E (40 μM) in α-MEM(−) for 1 hour, JC-1 assay was performed. The percentage of cells that emitted red fluorescence was assayed by flow cytometry.

[5] = tested on: HeLa cells transfected with a plasmid encoding loxP-DsRed-loxP-EGFP; assay: Genetic recombination assay by intracellular delivery of Cre protein (EGFP expression); assay type: cell-based; details: for proportion of GFP-expressing cells: Cre-His6 10 μM, peptide 40 μM, 1 hour, then 24 hours in α-MEM(+); for increase of genetic recombination as compared with no peptide administration: EGFP expression with no release peptide was 9%
Method: HeLa cells transfected with a plasmid encoding loxP-DsRed-loxP-EGFP, which were prepared in the same manner as in the Examples of PTL 2, were incubated with His-tag fusion Cre (Cre-Hiss) (10 μM) in the presence of HAad, HA/E2, or L17E (40 μM each) for 1 hour. This system was designed to express EGFP when intracellular release of Cre protein induces genetic recombination. […] The proportions of GFP-expressing cells in the cells treated with HAad, HA/E2, and L17E were 41%, 36%, and 30%, respectively. Considering the fact that the EGFP expression efficiency achieved with no administration of a release peptide was 9%, peptide administration of HAad, HA/E2, and L17E can be considered to increase genetic recombination by 32%, 27%, and […], respectively, as compared with no peptide administration.

NIH3T3 cells = assay: Intracellular release of dextran (10 kDa) in NIH3T3 cells; assay type: cell-based; details: peptide 40 μM, dextran (10 kDa), DEME(−) medium 1 hour
Method: Intracellular release of dextran is more difficult in NIH3T3 cells than in HeLa cells. NIH3T3 cells and dextran (10 kDa) were incubated in the presence of HAad, HA/E2, or L17E (40 μM each) in DEME(−) medium for 1 hour in the same manner as in Example 6.

[6] = Helix content from CD spectra in the presence of POPC/POPG (3:1) liposomes; assay type: physicochemical; details: result in words (FIG. 1)
Method: The helix content was calculated by the method of Y. H. Chen et al., 1972, based on 222-nm molar ellipticity ([…]) using the following formula: Helicity (%)=−([θ]222+2340)/30300*100.
The helix content of the peptides obtained in Example 1 (L17E, L17E/Q21E, L17Aad, HA/E1, HA/E2, and HAad) was calculated in the presence of POPC/POPG (3:1) liposomes by the method of Y. H. Chen et al., 1972, based on 222-nm molar ellipticity ([θ]222) using the following formula: Helix content (%)=−([θ]222+2340)/30300*100. Further, the CD spectra of the peptides were measured.

HeLa cells [7] = assay: Nuclear accumulation of NLS-EGFP; assay type: cell-based; details: NLS-EGFP 10 μM; peptide 40 μM; α-MEM(−) 1 hour
Method: The cells and NLS-EGFP (10 μM) were incubated in the presence of HAad or L17E (40 μM each) in α-MEM(−) medium for 1 hour in the same manner as in Example 6. If NLS-EGFP is intracellularly released while maintaining its activity, localization of green fluorescence in the nuclei is observed. […] A high activity of HAad to release endosome-encapsulated substances was also confirmed in this system.

HeLa cells [8] = assay: Release of Alexa 488-dextran (10 kDa) into the cytoplasm, confocal microscopy; assay type: cell-based; details: Alexa 488-dextran (10 kDa) 200 μg/mL, 1 hour, read-out: peptide concentration required to detect the signal of intracellularly released Alexa 488-dextran in 50% of the cells
[9] = HeLa, 40 μM, 1 hour in α-MEM(−), Lipofectamine LTX/pCI complex overnight in α-MEM(+)

| Molecule | cells in which intracellular release of human immunoglobulin was observed (HeLa cells [1]; peptide 40 μM, IgG 500 μg/mL) [%] | toxicity, in words (cells) | viability at 24 h [2] [%] | endosome-encapsulated substance (Alexa 488-dextran) releasing activity, in words (HeLa cells [3]; peptide 40 μM, Alexa 488-dextran 200 μg/mL, 1 hr, compared with L17E) | effect on mitochondrial membrane (cells emitting red JC-1 fluorescence), in words [4, 9] | proportion of GFP-expressing cells [5] [%] | increase of genetic recombination as compared with no peptide administration [5] [%] | cells in which intracellular release of dextran was observed (NIH3T3 cells) [%] | helicity in the presence of an acidic lipid membrane [6] | effect on mitochondrial membrane (cells emitting red JC-1 fluorescence), in words [4] | peptide concentration required to detect the signal of intracellularly released human immunoglobulin in 35% of the cells (HeLa cells [1]; IgG 500 μg/mL, 1 hour) [µM] | cells in which intracellular release of human immunoglobulin was observed (HeLa cells [1]; peptide 20 μM, IgG 500 μg/mL) | cells in which intracellular release of human immunoglobulin was observed (HeLa cells [1]; peptide 40 μM, IgG 50 μg/mL) | cells in which Alexa 488-dextran release into the cytosol was observed (HeLa cells [3]; peptide 40 μM, Alexa 488-dextran (10 kDa) 200 μg/mL, 1 hour in α-MEM(−)) | cells in which localization of NLS-EGFP in the nuclei was observed (HeLa cells [7]) [%] | EC50 (HeLa cells [8]) [µM] | cells in which release of Alexa 488-dextran into the cytoplasm was observed (HeLa cells [3]; peptide 20 μM, Alexa 488-dextran (10 kDa) 200 μg/mL, 1 hour in α-MEM(−)) [%] |
| --- | --- | --- | --- | --- | --- | --- | --- | --- | --- | --- | --- | --- | --- | --- | --- | --- | --- |
| H-IWLTALKFLGKAAAKAEAKQELSKL-NH2 [HA/E2, IWLTALX^5FLGX^6AAAX^7AEAX^8QELSX^9L-amide] | ~45 | no significant toxicity | ~100 | higher endosomal content release activity than L17E; also recorded: Significant outflow; also recorded: equivalent to that of HA/E1; also recorded: significantly higher endosome-encapsulated substance releasing activity than L17E | no significant difference from the untreated case | 36 | 27 | ~25 | high helicity | – | – | – | – | – | – | – | – |
| N#CC(C#N)=NNc1ccc(OC(F)(F)F)cc1 [FCCP, carbonyl cyanide-p-trifluoromethoxyphenylhydrazone, reference compound] | – | – | – | – | – | – | – | – | – | changed to emit green fluorescence | – | – | – | – | – | – | – |
| IWLTALKFLGKHAAKHEAKQQLSKL-NH2 [L17E, IWLTALX^5FLGX^6HAAX^7HEAX^8QQLSX^9L-amide, reference compound] | ~35 | no significant toxicity | ~100 | – | decreased slightly | 30 | 22 | ~17 | – | – | 40 | about 15% | about 10% | about 50% | ~56 | 40 | – |
| H-IWLTALZFLGZAAAZAXAZQXLSZL-amide (H-IWLTAL[hArg]FLG[hArg]AAA[hArg]A[Aad]A[hArg]Q[Aad]LS[hArg]L-NH2; SMILES CC[C@H](C)[C@H](N)C(=O)N[C@@H](Cc1c[nH]c2ccccc12)C(=O)N[C@@H](CC(C)C)C(=O)N[C@H](C(=O)N[C@@H](C)C(=O)N[C@@H](CC(C)C)C(=O)N[C@@H](CCCCNC(=N)N)C(=O)N[C@@H](Cc1ccccc1)C(=O)N[C@@H](CC(C)C)C(=O)NCC(=O)N[C@@H](CCCCNC(=N)N)C(=O)N[C@@H](C)C(=O)N[C@@H](C)C(=O)N[C@@H](C)C(=O)N[C@@H](CCCCNC(=N)N)C(=O)N[C@@H](C)C(=O)N[C@@H](CCCC(=O)O)C(=O)N[C@@H](C)C(=O)N[C@@H](CCCCNC(=N)N)C(=O)N[C@@H](CCC(N)=O)C(=O)N[C@@H](CCCC(=O)O)C(=O)N[C@@H](CC(C)C)C(=O)N[C@@H](CO)C(=O)N[C@@H](CCCCNC(=N)N)C(=O)N[C@@H](CC(C)C)C(N)=O)[C@@H](C)O; listed as Lycosa carolinensis) [HAad-homoR] | – | – | – | – | – | – | – | – | – | – | – | – | – | – | – | – | 75 |
